Series [1] is described as follows: Stability in human whole blood assessed as amidase-mediated carboxylic acid formation by measuring parent compound remaining measured after 1 hr. In kind it is ADME, tissue-based.
Series [2] in a line: Half life in mouse liver microsomes at 0.5 mM preincubated for 5 mins followed by NADP addition and measured after LC-MS/MS analysis. In kind it is ADME, Microsome.
The nature of series [3]: Apparent permeability of the compound at 2.5 uL at pH 7.4 incubated for 3 hrs under shaking condition by PAMPA. In kind it is ADME.
The nature of series [4]: Terminal half life in mouse. In kind it is ADME, organism-based. The conditions noted are these: in vivo.
Series [5] is described as follows: Dose normalized AUC in po dosed mouse. In kind it is ADME, organism-based. The conditions noted are these: in vivo.
For the next series, the species on record is Mus musculus. The series can be described thus: animal or person. The following applies: C57BL/6J, po.
Series [6] in a line: Solubility of the compound in FaSSIF by HPLC analysis. In kind it is physicochemical.
Series [7] can be described thus: Clearance in iv dosed mouse. In kind it is ADME, organism-based. The following applies: in vivo.
Series [8] is described as follows: Volume of distribution at steady state in mouse. In kind it is ADME, organism-based. The conditions noted are these: in vivo, read-out: Vdss.
The nature of series [9]: Oral bioavailability in mouse. The following applies: in vivo. In kind it is ADME, organism-based.

Each structure is given as a SMILES string. Values after ≈ are worked out from the molar mass of the structure shown.

For the compound `COc1ccc2cc(C(=O)Nc3cc[nH]n3)cnc2c1`, in [1], the Stability is given as 93%.
Compound `COc1ccc2cc(C(=O)N[C@H]3CC[C@H](C(C)(C)O)CC3)cnc2c1` returned a half-life in series [2] of 0.633 h.
`CC(C)(O)[C@H]1CC[C@H](NC(=O)c2cnc3cc(OC(F)F)ccc3c2)CC1` had a half-life in series [2] above 3 h. In addition, the Papp at 3 h in series [3] is 24 ×10⁻⁶ cm/s. In series [4], this compound returned a beta t1/2 of 3.8 h. In [5], this compound showed an AUC/dose of 1800 ng·h/mL per mg/kg. In the series filed under Mus musculus, this compound yielded an ED50 of 0.032 mg/kg.
As to `COc1ccc2cc(C(=O)NC(C)(C)C)cnc2c1`, the Stability in series [1] was found to be 1%.
As for `CC(C)(O)[C@H]1CC[C@H](NC(=O)c2cnc3cc(OC(F)(F)F)ccc3c2)CC1`, the half-life in series [2] is above 3 h; in series [4] it was 7.9 h. In addition, the Papp at 3 h in [3] was determined as 47 ×10⁻⁶ cm/s. The solubility in [6] was 16 µg/mL (≈ 40.4 µM). The clearance in series [7] came out at 3.8 mL/min/kg. The Vd in series [8] is 2.5 L/kg. Moreover, the bioavailability in [9] is 46%. Besides, in series [5], the AUC/dose was found to be 1900 ng·h/mL per mg/kg.
For the compound `COc1ccc2cc(C(=O)Nc3cn[nH]c3)cnc2c1`, the Stability in series [1] was determined as 63%.
`COc1ccc2cc(C(=O)N[C@H]3CCNC3=O)cnc2c1`: the Stability in [1] is on record as 100%.
